{"source": "patent US10842845B2", "about": "“Oxytocin improves treatment of obstructive sleep apnea” (THE GEORGE WASHINGTON UNIVERSITY, priority 2014, dated 2020)", "key": {"[1]": {"system": "DREADDs-expressing PVN OXT neurons", "experiment": "Whole-cell patch clamp of DREADDs-expressing PVN OXT neurons, CNO application", "assay_type": "cell-based, rat", "description": "CVNs in NA and DMNX were identified by the presence of fluorescent tracer rhodamine and imaged using differential interference contrast optics and infrared illumination. Whole cell voltage clamp recordings from CVNs were done using Axopatch 200B and pClamp 8 software (Axon Instruments, Union city, USA), at a holding voltage of −80 mV at room temperature. The patch pipettes (2.5-5 MΩ) were filled with a solution consisting (in mM) of KCl (150), MgCl2 (4), EGTA (10), Na-ATP (2) and HEPES (10) or K-gluconic acid (150), HEPES (10), EGTA (10), MgCl2 (1) and CaCl2 (1) at a pH of 7.3 for recording inhibitory or excitatory events respectively. For PVN studies, forebrain slices were used for electrophysiology recordings.\nA rat minimal oxytocin (OXT) promoter element from ˜530 bp to +33 relative to the origin of transcription of the OXT gene (UCSC genome browser on rat November 2004 assembly; chr3:118,193,690 to 118,194,252) was synthesized de novo and flanked by multiple cloning sites (Genscript, Piscataway, N.J.) (McCann et al., 2002; Petersson et al., 1996). […] Expression of these Cre-dependent vectors will only be initiated in neurons selectively expressing Cre as they contain silencing double-foxed inverse open reading frames (Sawchenko and Swanson, 1982). […]"}, "[2]": {"target": "T1, DREADDs receptors on PVN OXT neurons (Homo sapiens, UniProt P20309, A239G/Y149C)", "T1 construct": "mCherry (C); host or cells: PVN oxytocin neurons of Sprague-Dawley rats, in vivo, transduced with AAV2-hSyn-DIO-hM3D(Gq)-mCherry and rAAV1-OXT-Cre", "T1 sequence (P20309 whole entry Y149C/A239G, the tested form may be a part)": "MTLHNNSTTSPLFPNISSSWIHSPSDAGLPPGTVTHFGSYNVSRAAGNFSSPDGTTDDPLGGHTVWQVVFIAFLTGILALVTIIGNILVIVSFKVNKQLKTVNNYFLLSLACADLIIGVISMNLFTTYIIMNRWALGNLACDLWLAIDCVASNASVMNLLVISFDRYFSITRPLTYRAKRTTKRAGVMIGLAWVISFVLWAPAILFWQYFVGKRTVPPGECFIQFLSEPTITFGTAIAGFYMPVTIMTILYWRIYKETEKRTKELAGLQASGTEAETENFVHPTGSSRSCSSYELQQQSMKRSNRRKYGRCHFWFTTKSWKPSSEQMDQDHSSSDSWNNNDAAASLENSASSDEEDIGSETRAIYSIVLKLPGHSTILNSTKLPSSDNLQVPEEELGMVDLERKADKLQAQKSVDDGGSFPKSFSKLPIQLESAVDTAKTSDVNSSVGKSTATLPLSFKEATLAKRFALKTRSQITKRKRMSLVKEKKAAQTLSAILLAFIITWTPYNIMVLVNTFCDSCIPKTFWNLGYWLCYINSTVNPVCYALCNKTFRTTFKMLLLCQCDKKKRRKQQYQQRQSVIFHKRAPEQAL", "experiment": "Telemetry of resting blood pressure and heart rate before and after CNO injection", "assay_type": "in vivo, Sprague-Dawley rats", "description": "To record blood pressure and heart rate, male Sprague-Dawley rats, 3-4 weeks of age, were anesthetized using isoflurane (2-4%) and a HD-XII pressure transmitter was implanted (Data Sciences International, St Paul, Minn., USA) with its cathether inserted into the abdominal aorta to record pressure and EKG leads were attached subcutaneously to obtain EKG recordings and heart rate. All rats with telemetry devices were allowed 7-14 days to recover from transmitter implantation surgery before any measurements were recorded. Blood pressure and heart rate were recorded via radio-frequency signals obtained through the Ponemah data acquisition system (Data Sciences International). Baseline recordings of blood pressure and heart rate were obtained for 3 days prior to CIH/H exposure. Prior to, and during, the 28 day CIH/H exposure period daily baseline recordings of blood pressure and heart rate were recorded.\n1-2 weeks after telemetry implantation, DREADDs receptors on PVN OXT neurons were activated daily by intraperitoneal (IP) injection of clozapine-n-oxide (CNO, 1.0 mg/kg). To investigate the effects of CNO on resting BP and HR in both DREADDs-expressing and sham animals, 3 days prior to CIH/H exposure (control days) baseline BP and HR values were recorded for a 20 min period before CNO injection. Animals from each group then received an IP injection of CNO, BP and HR were recorded for 1 hr, and the animals then underwent exposure to air for 8 hr to achieve acclimation to the chambers. During the 21 days of CIH/H exposure, baseline recordings of BP and HR were obtained before CNO injection, recorded for 1 hr post CNO injection, and for the entire duration of OHM exposure.\nTo examine the effects of CNO on and the chronic changes to mean arterial blood pressure (MAP) over the 21 days of OHM exposure, values were recorded before and after CNO injection on control days prior to CIH exposures, and days 1, 3, 6, 9, 12, 15, 18, and 21 of CIH/H. Changes within the DREADDs-expressing animals and the sham animals were statistically analyzed by one-way ANOVA with repeated-measures followed by Bonferroni's multiple comparison test. To examine the statistical changes in MAP between the two groups of animals, a two-way ANOVA with repeated-measures followed by Bonferroni's multiple comparison test was used. Data with p<0.05 were considered significant.\nCNO administration had no effect on BP represented as mean arterial pressure (MAP) and HR in sham animals without DREADDs expression (FIGS. 10A and 10B). However, CNO administration that activates DREADDs receptors in PVN OXT neurons decreased resting HR and BP throughout 21 days of CIH/H exposure, with significant decreases in MAP (104±2.6 mmHg before CNO to 93±1.7 mmHg after CNO; n=8; ^+p<0.0001; paired t test; FIG. 10A) and HR (416±7.1 beats/min before CNO to 362±10.5 beats/min after CNO; n=8; ^+p<0.01; paired t test; FIG. 10B)."}}, "note": "Entries after “also recorded” stand apart in the source; their conditions may differ."}
{"smiles": "C[N+]1([O-])CCN(C2=Nc3cc(Cl)ccc3Nc3ccccc32)CC1", "note": "[CNO, clozapine-n-oxide]", "values": [{"measurement": "firing of PVN OXT neurons expressing DREADDs with CNO application (in words)", "setting": "[1]; before CNO vs post CNO, 7 neurons", "value": "significantly increases"}, {"measurement": "action potential firing frequency of DREADDs-expressing PVN neurons after CNO application", "setting": "[1]; within 5 min of CNO application, from 0.19±0.05 Hz before CNO, n=7", "value": "0.75±0.14", "unit": "Hz"}, {"measurement": "change in HR after CNO injection (in words)", "setting": "[2]; DREADDs-expressing animals, 45 min after CNO injection, n=8", "value": "significantly decreased"}, {"measurement": "MAP after CNO", "setting": "[2]; DREADDs-expressing animals, CNO 1.0 mg/kg IP, 104±2.6 mmHg before CNO, n=8", "value": "93±1.7", "unit": "mmHg"}, {"measurement": "HR after CNO", "setting": "[2]; DREADDs-expressing animals, CNO 1.0 mg/kg IP, 416±7.1 beats/min before CNO, n=8", "value": "362±10.5", "unit": "beats/min"}, {"measurement": "change in resting MAP after CNO injection (in words)", "setting": "[2]; oxytocin neuron activated (DREADDs-expressing) animals, 45 min after CNO injection, n=8", "value": "significantly decreased"}, {"measurement": "effect of CNO on HR in sham animals without DREADDs expression (in words)", "setting": "[2]; sham animals, n=7", "value": "no effect; also recorded: did not significantly change"}, {"measurement": "effect of CNO on MAP in sham animals without DREADDs expression (in words)", "setting": "[2]; sham animals, n=7", "value": "no effect; also recorded: did not significantly change"}]}
